Results from patent US20240041042A1, “1-(PYRIDYL)-5-AZINYLPYRAZOLE DERIVATIVES, AND THEIR USE FOR CONTROL OF UNDESIRED PLANT GROWTH” (Bayer Aktiengesellschaft, priority 2020, published 2024).
Where two headings read alike, the source gives them in different places.

Key:
Format in all cases: in vivo
[1] = tested on: Amaranthus retroflexus (AMARE); experiment: Pre-emergence herbicidal action against AMARE; details: visual scoring after about 3 weeks vs untreated controls
Procedure, shortened: (§1)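 Dosages of 320 g/ha or less; pre-emergence; WP or EC in aqueous spray, 0.5% additive, 600 l/ha; greenhouse; visual % effect after ~3 wk relative to control pots.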

[2] = tested on: Echinochloa crus-galli (ECHCG); experiment: Pre-emergence herbicidal action against ECHCG; details: dosage 320 g/ha
Procedure, shortened: as §1

Lolium rigidum (LOLRI) [3] = experiment: Pre-emergence herbicidal action against LOLRI; details: dosage 320 g/ha
Procedure, shortened: as §1

[4] = tested on: Matricaria inodora (MATIN); experiment: Pre-emergence herbicidal action against MATIN; details: dosage 320 g/ha
Procedure, shortened: as §1

[5] = tested on: Pharbitis purpurea (PHBPU); experiment: Pre-emergence herbicidal action against PHBPU; details: dosage 320 g/ha
Procedure, shortened: as §1

Setaria viridis (SETVI) [6] = experiment: Pre-emergence herbicidal action against SETVI; details: dosage 320 g/ha
Procedure, shortened: as §1

Viola tricolor (VIOTR) [7] = experiment: Pre-emergence herbicidal action against VIOTR
Procedure, shortened: as §1

Oryza sativa (ORYSA) [8] = details: pre-emergence, crop plant compatibility, in comparison to untreated controls
Procedure, shortened: (§2)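 Crop injury rated visually in percent against untreated plants roughly 3 weeks after treatment (0% no effect, 100% plants dead). Compounds, as WP or EC with 0.5% additive in 600 l/ha water, were applied to the covering soil right after sowing; greenhouse growth. Suffixes a, b, c denote different dosages.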

Zea mays (ZEAMX) [9] = details: pre-emergence, crop plant compatibility, in comparison to untreated controls
Procedure, shortened: as §2

[10] = tested on: Alopecurus myosuroides (ALOMY); experiment: Post-emergence herbicidal action against ALOMY; details: visual rating about 3 weeks after treatment vs untreated controls (100% = plants have died, 0% = like control plants)
Procedure, shortened: (§3)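 Post-emergence greenhouse spray, one-leaf stage, 600 l/ha water plus 0.5% additive; WP or EC formulations; application rates 320 g/ha or lower. Visual % damage vs untreated controls at ~3 weeks.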

[11] = tested on: Amaranthus retroflexus (AMARE); experiment: Post-emergence herbicidal action against AMARE
Procedure, shortened: as §3

Avena fatua (AVEFA) [12] = experiment: Post-emergence herbicidal action against AVEFA; details: visual rating about 3 weeks after treatment
Procedure, shortened: as §3

[13] = tested on: Echinochloa crus-galli (ECHCG); experiment: Post-emergence herbicidal action against ECHCG
Procedure, shortened: as §3

[14] = tested on: Matricaria inodora (MATIN); experiment: Post-emergence herbicidal action against MATIN; details: dosage 320 g/ha
Procedure, shortened: as §3

[15] = tested on: Pharbitis purpurea (PHBPU); experiment: Post-emergence herbicidal action against PHBPU
Procedure, shortened: as §3

[16] = tested on: Polygonum convolvulus (POLCO); experiment: Post-emergence herbicidal action against POLCO
Procedure, shortened: as §3

Setaria viridis (SETVI) [17] = experiment: Post-emergence herbicidal action against SETVI
Procedure, shortened: as §3

[18] = tested on: Verconica persica (VERPE); experiment: Post-emergence herbicidal action against VERPE
Procedure, shortened: as §3

Oryza sativa (ORYSA) [19] = details: crop plant compatibility
Procedure, shortened: (§4)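 Visual rating (% effect vs. untreated plants; 100% = plant death) made about 3 weeks after treatment. Plants had been sprayed at one-leaf stage, 2–3 weeks post-sowing, with aqueous WP/EC preparations containing 0.5% additive, 600 l/ha water volume; a, b, c mark dose levels.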

[20] = tested on: Alopecurus myosuroides (ALOMY); experiment: Pre-emergence herbicidal action against ALOMY; details: scored visually after about 3 weeks, 100% = plants have died
Procedure, shortened: as §1

Avena fatua (AVEFA) [21] = experiment: Pre-emergence herbicidal action against AVEFA; details: 320 g/ha, visual scoring after about 3 weeks vs untreated controls
Procedure, shortened: as §1

[22] = tested on: Polygonum convolvulus (POLCO); experiment: Pre-emergence herbicidal action against POLCO
Procedure, shortened: as §1

[23] = tested on: Verconica persica (VERPE); experiment: Pre-emergence herbicidal action against VERPE; details: dosage 320 g/ha
Procedure, shortened: as §1

[24] = tested on: Triticum aestivum (TRZAS); details: crop plant compatibility, effect vs untreated controls
Procedure, shortened: as §4

Zea mays (ZEAMX) [25] = details: for Post-emergence action against ZEAMX in %: crop plant compatibility, effect vs untreated controls
Procedure, shortened: as §4

Viola tricolor (VIOTR) [26] = experiment: Post-emergence herbicidal action against VIOTR
Procedure, shortened: as §3

[27] = tested on: Abutilon theophrasti (ABUTH); experiment: Post-emergence herbicidal action against ABUTH; details: visual rating about 3 weeks after treatment vs untreated controls (100% = plants have died, 0% = like control plants)
Procedure, shortened: as §3

Lolium rigidum (LOLRI) [28] = experiment: Post-emergence herbicidal action against LOLRI; details: dosage 320 g/ha
Procedure, shortened: as §3

[29] = 80 g/ha, visual rating about 3 weeks after treatment vs untreated controls (100% = plants have died, 0% = like control plants)
[30] = 320 g/ha, visual rating about 3 weeks after treatment
[31] = 80 g/ha, effect in comparison to untreated controls

Structure (SMILES)	Pre-emergence action against AMARE in % ([1]; 320 g/ha)	Pre-emergence action against ECHCG in % [2]	Pre-emergence action against LOLRI in % (Lolium rigidum (LOLRI) [3])	Pre-emergence action against MATIN in % [4]	Pre-emergence action against SETVI in % (Setaria viridis (SETVI) [6])	Pre-emergence action against VIOTR in % (Viola tricolor (VIOTR) [7]; 320 g/ha, Viola tricolor)	Pre-emergence action against VIOTR in % (Viola tricolor (VIOTR) [7]; dosage 80 g/ha)	Pre-emergence action against ORYSA in % (Oryza sativa (ORYSA) [8]; 80 g/ha)	Pre-emergence action against ZEAMX in % (Zea mays (ZEAMX) [9]; 80 g/ha)	Post-emergence action against ALOMY in % ([10]; 320 g/ha)	Post-emergence action against AMARE in % [11, 29]	Post-emergence action against AMARE in % [11, 30]	Post-emergence action against AVEFA in % (Avena fatua (AVEFA) [12]; 320 g/ha)	Post-emergence action against ECHCG in % ([13]; dosage 320 g/ha)	Post-emergence action against MATIN in % [14]	Post-emergence action against POLCO in % ([16]; dosage 320 g/ha)	Post-emergence action against ORYSA in % (Oryza sativa (ORYSA) [19]; [31])	Pre-emergence action against AVEFA in % (Avena fatua (AVEFA) [21])	Pre-emergence action against POLCO in % ([22]; dosage 320 g/ha)	Pre-emergence action against VERPE in % [23]	further results
CCOC(=O)CSc1nn(-c2ccccn2)c(-c2cncc(F)c2)c1C1CC1 [Example I-156]	100%	90%	80%	80%	90%	90%	80%	0%	0%	80%	80%	90%	90%	80%	80%	80%	0%	–	–	–	Pre-emergence action against PHBPU in % [5]: 80%; Pre-emergence action against ZEAMX in % (Zea mays (ZEAMX) [9]; 320 g/ha): 20%; Post-emergence action against ECHCG in % ([13]; dosage 80 g/ha): 80%; Post-emergence action against PHBPU in % ([15]; dosage 320 g/ha): 90%; Post-emergence action against SETVI in % (Setaria viridis (SETVI) [17]; dosage 320 g/ha): 80%; Post-emergence action against VERPE in % ([18]; 320 g/ha, VERPE): 80%
O=C(O)COc1nn(-c2ccccn2)c(-c2ccc(F)nc2)c1C(F)(F)F [Example I-99]	90%	–	100%	90%	90%	90%	–	0%	0%	–	80%	–	–	–	–	–	0%	90%	90%	90%	Pre-emergence action against ALOMY ([20]; 80 g/ha): 80%; Pre-emergence action against ALOMY ([20]; 320 g/ha): 100%; Post-emergence action against ALOMY in % ([10]; 80 g/ha): 90%; Post-emergence action against PHBPU in % ([15]; dosage 80 g/ha): 80%; Post-emergence action against POLCO in % ([16]; dosage 80 g/ha): 90%; Post-emergence action against VERPE in % ([18]; dosage 80 g/ha): 80%; Post-emergence action against ORYSA in % (Oryza sativa (ORYSA) [19]; 20 g/ha, effect vs untreated controls): 0%; Post-emergence action against TRZAS in % ([24]; 20 g/ha): 20%; Post-emergence action against ZEAMX in % (crop plant compatibility) (Zea mays (ZEAMX) [25]; 20 g/ha, ZEAMX, effect in comparison to untreated controls): 0%
C=CCNC(=O)COc1nn(-c2ncccc2F)c(-c2ccc(F)nc2)c1Br [Example I-31]	90%	90%	–	–	90%	90%	–	0%	0%	–	–	80%	–	–	–	80%	0%	80%	80%	90%	Pre-emergence action against ORYSA in % (Oryza sativa (ORYSA) [8]; 320 g/ha): 0%; Post-emergence action against VIOTR in % (Viola tricolor (VIOTR) [26]; 320 g/ha): 80%; Post-emergence action against ORYSA in % (Oryza sativa (ORYSA) [19]; 320 g/ha, effect in comparison to untreated controls): 10%; Post-emergence action against TRZAS in % ([24]; 80 g/ha): 10%; Post-emergence action against ZEAMX in % (Zea mays (ZEAMX) [25]; 80 g/ha): 0%; Post-emergence action against ZEAMX in % (Zea mays (ZEAMX) [25]; 320 g/ha): 0%
COC(=O)COc1nn(-c2ncccc2Cl)c(-c2ccc(F)nc2)c1Br [Example I-28]	100%	100%	100%	90%	100%	100%	100%	0%	10%	100%	90%	90%	100%	90%	80%	80%	0%	100%	90%	100%	Pre-emergence action against ALOMY ([20]; 320 g/ha): 100%; Pre-emergence action against AMARE in % ([1]; 80 g/ha): 90%; Pre-emergence action against POLCO in % ([22]; dosage 80 g/ha): 80%; Post-emergence action against ABUTH in % ([27]; 80 g/ha): 80%; Post-emergence action against ABUTH in % ([27]; 320 g/ha): 90%; Post-emergence action against ALOMY in % ([10]; 80 g/ha): 100%; Post-emergence action against AVEFA in % (Avena fatua (AVEFA) [12]; 80 g/ha): 100%; Post-emergence action against ECHCG in % ([13]; dosage 80 g/ha): 80%; Post-emergence action against LOLRI in % (Lolium rigidum (LOLRI) [28]): 90%; Post-emergence action against PHBPU in % ([15]; dosage 80 g/ha): 80%; Post-emergence action against PHBPU in % ([15]; dosage 320 g/ha): 80%; Post-emergence action against SETVI in % (Setaria viridis (SETVI) [17]; dosage 80 g/ha): 80%; Post-emergence action against SETVI in % (Setaria viridis (SETVI) [17]; dosage 320 g/ha): 90%; Post-emergence action against VERPE in % ([18]; 320 g/ha, VERPE): 80%; Post-emergence action against VIOTR in % (Viola tricolor (VIOTR) [26]; 80 g/ha): 80%; Post-emergence action against VIOTR in % (Viola tricolor (VIOTR) [26]; 320 g/ha): 80%; Post-emergence action against ZEAMX in % (Zea mays (ZEAMX) [25]; 80 g/ha): 0%
CSCCOC(=O)COc1nn(-c2ccccn2)c(-c2ccc(F)nc2)c1Br [Example I-95]	100%	–	–	80%	100%	100%	100%	0%	0%	100%	80%	90%	80%	90%	80%	80%	0%	80%	90%	100%	Pre-emergence action against ALOMY ([20]; 320 g/ha): 80%; Pre-emergence action against AMARE in % ([1]; 80 g/ha): 90%; Pre-emergence action against ORYSA in % (Oryza sativa (ORYSA) [8]; 320 g/ha): 0%; Pre-emergence action against ZEAMX in % (Zea mays (ZEAMX) [9]; 320 g/ha): 0%; Post-emergence action against ABUTH in % ([27]; 80 g/ha): 80%; Post-emergence action against ABUTH in % ([27]; 320 g/ha): 80%; Post-emergence action against AVEFA in % (Avena fatua (AVEFA) [12]; 80 g/ha): 80%; Post-emergence action against LOLRI in % (Lolium rigidum (LOLRI) [28]): 80%; Post-emergence action against POLCO in % ([16]; dosage 80 g/ha): 80%; Post-emergence action against SETVI in % (Setaria viridis (SETVI) [17]; dosage 320 g/ha): 90%; Post-emergence action against VERPE in % ([18]; 320 g/ha, VERPE): 80%; Post-emergence action against VERPE in % ([18]; dosage 80 g/ha): 80%; Post-emergence action against VIOTR in % (Viola tricolor (VIOTR) [26]; 320 g/ha): 80%
